Reference: patent US5656603A (Loyola University of Chicago, priority 1995, dated 1997)

Columns and labels:
Format in all cases: biochemical
[1] = biological target: T1, recombinant E. coli aminopeptidase P (Escherichia coli, UniProt P15034); experiment: Aminopeptidase P inhibition, release of arginine from Arg-Pro-Pro (fluorescent assay)
T1 construct: supplied by Dr. Tadashi Yoshimoto (Nagasaki University)
Source text: (§1) Enzymes--Membrane-bound aminopeptidase P was purified to homogeneity from bovine lung (14) and from rat lung. Partially purified membrane-bound aminopeptidase P from human lung was obtained by treatment of lung microsomes with phosphatidylinositol-specific phospholipase C (B. thuringiensis) (ICN, Costa Mesa, Calif.) followed by centrifugation as described previously (14). Membrane dipeptidase was purified from rat lung microsomes (manuscript in preparation). Recombinant E. coli aminopeptidase P (22) and purified lamb kidney prolyl oligopeptidase (23) were generally supplied by Dr. Tadashi Yoshimoto (Nagasaki University). Purified porcine kidney prolidase and purified porcine kidney aminopeptidase M was obtained from Sigma (St. Louis, Mo.).
Enzyme Kinetics--Aminopeptidase P activity was determined by measuring the release of arginine from Arg-Pro-Pro by a fluorescent assay described previously (14). […] Each mixture was run in duplicate. Aliquots were removed from each incubation mixture at various times and assayed for the amount of arginine present to determine the reaction velocity. In general, reaction velocities were calculated from data representing less than 20% cleavage of substrate. Ki and Ki ' (=αKi) were determined from plots of 1/v versus concentration of inhibitor "i" (26) and S/v versus concentration of inhibitor "i" (27), respectively. These parameters were also determined from the slope replot and 1/v-intercept replot, respectively, of the 1/v versus 1/S plot (28). See e.g., FIG. 1B. The values from the two treatments of the data were averaged for each experiment. Experiments for each enzyme preparation were performed twice and the results averaged.

[2] = biological target: T2, aminopeptidase M (EC 3.4.11.2) (Sus scrofa, UniProt P15145); experiment: Specificity of apstatin: aminopeptidase M; settings: purified, porcine kidney; Ala-β-NA, pH 6.8, FLUO
T2 construct: Purified porcine kidney prolidase and purified porcine kidney aminopeptidase M was obtained from Sigma; purchased Sigma (St. Louis, Mo.); host or cells: porcine kidney
T2 sequence (P15145 1-963): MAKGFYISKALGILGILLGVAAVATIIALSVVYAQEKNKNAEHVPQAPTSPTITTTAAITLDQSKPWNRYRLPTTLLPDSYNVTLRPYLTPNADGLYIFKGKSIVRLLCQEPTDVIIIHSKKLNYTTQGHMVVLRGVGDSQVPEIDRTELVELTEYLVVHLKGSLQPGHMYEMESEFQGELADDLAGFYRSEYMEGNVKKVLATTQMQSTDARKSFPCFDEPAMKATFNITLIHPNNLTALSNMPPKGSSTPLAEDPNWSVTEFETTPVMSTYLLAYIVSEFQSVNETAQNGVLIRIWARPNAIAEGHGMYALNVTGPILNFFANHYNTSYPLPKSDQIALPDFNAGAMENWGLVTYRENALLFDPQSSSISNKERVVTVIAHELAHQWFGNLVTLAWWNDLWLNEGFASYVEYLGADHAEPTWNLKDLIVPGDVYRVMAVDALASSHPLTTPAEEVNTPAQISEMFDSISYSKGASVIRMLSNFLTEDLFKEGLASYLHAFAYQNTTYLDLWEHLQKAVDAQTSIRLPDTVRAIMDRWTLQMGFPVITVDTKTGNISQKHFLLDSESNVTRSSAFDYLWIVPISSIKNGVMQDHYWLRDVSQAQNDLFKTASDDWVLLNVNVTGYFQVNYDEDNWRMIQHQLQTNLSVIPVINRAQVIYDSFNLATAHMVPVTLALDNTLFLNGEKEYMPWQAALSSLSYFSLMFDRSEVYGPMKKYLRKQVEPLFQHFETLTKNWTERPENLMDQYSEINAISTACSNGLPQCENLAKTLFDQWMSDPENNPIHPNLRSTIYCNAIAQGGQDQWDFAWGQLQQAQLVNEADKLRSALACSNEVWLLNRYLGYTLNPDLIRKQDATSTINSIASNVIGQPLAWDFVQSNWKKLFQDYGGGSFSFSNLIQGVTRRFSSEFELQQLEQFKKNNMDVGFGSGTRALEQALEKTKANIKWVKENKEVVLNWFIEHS
Experimental: (§2) Specificity of Apstatin--Apstatin was assayed for its ability to inhibit several other peptidases. […] Unless otherwise indicated, the source of each enzyme activity was a detergent extract of bovine lung prepared as described in (12-13). Activities were determined by a modification of the fluorescent assay described above (indicated by "FLUO") or by HPLC separation and quantitation of reaction products using the method described in (12) (method "HPLC-1") or the method described below (method "HPLC-2"). […]

[3] = biological target: dipeptidyl-peptidase I-like activity; experiment: Specificity of apstatin: dipeptidyl-peptidase I-like activity; settings: detergent extract of bovine lung; Gly-Phe-β-NA, pH 6.5, HPLC-2
Experimental: as §2

prolyl oligopeptidase = prolyl oligopeptidase (Ovis aries, UniProt A0ACI6PCU6); experiment: Specificity of apstatin: prolyl oligopeptidase; settings: purified, lamb kidney; Bk, pH 6.8, HPLC-1
Source text: as §1, §2

T1 sequence (P15034 whole entry): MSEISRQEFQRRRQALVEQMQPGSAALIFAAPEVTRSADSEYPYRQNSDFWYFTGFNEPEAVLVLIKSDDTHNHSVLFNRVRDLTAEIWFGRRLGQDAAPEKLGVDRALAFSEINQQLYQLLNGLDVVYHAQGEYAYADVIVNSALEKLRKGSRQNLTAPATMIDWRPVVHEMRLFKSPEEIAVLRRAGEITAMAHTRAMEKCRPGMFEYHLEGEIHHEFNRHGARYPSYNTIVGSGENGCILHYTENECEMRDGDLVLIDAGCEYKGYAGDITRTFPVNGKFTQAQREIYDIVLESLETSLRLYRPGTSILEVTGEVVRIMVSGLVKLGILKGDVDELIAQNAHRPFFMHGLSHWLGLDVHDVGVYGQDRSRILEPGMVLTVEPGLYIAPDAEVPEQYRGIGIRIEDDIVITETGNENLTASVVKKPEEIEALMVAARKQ
prolyl oligopeptidase, sequence (A0ACI6PCU6 entry or part of it): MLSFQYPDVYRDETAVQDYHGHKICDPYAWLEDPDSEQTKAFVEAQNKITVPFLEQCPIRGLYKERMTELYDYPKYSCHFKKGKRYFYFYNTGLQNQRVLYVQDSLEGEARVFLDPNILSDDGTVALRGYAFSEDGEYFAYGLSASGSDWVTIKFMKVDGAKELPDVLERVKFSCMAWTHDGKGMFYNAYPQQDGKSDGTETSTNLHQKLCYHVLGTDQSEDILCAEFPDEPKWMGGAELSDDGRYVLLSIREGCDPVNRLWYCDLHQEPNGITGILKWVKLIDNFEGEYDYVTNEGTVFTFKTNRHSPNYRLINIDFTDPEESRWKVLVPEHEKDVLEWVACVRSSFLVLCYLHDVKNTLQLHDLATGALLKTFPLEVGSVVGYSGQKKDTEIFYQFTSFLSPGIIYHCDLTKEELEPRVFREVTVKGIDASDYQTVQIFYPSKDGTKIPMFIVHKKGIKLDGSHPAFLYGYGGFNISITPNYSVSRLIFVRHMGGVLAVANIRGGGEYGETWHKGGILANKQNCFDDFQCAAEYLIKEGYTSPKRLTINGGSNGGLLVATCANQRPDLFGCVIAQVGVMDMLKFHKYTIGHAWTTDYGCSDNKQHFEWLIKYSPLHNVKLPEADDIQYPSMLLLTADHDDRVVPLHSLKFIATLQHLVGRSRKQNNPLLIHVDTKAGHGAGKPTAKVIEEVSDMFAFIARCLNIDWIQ

## C[C@H](NC(=O)[C@@H]1CCCN1C(=O)[C@@H]1CCCN1C(=O)[C@@H](O)[C@H](N)Cc1ccccc1)C(N)=O [apstatin, N-[(2S, 3R)-3-amino-2-hydroxy-4-phenylbutanoyl]-L-prolyl-L-prolyl-Lalaninamide]
[1]; E. coli, recombinant
  α (αKi = equilibrium constant for enzyme-inhibitor binding at infinite substrate concentration): 2.5
[1]; E. coli, recombinant, substrate Arg-Pro-Pro, 0.1 M Hepes pH 8.0, 39° C.
  Ki: 14 µM
[1]; recombinant E. coli aminopeptidase P
  type of inhibition: linear mixed-type
[2]
  IC50: 600 µM
[3]
  IC50: > 800 µM
Prolyl oligopeptidase
  IC50: > 800 µM
